Results on one compound are retold here after US8343979B2, “Use of alkanoyl L-carnitine for the treatment of erectile dysfunction” (Sigma-Tau Industrie Farmaceutiche Riunite S.p.A., priority 2001, dated 2013).

Test [1] concerns erectile dysfunction, diabetics or nondiabetics patients. Nature of the test: preliminary experimental data on propionyl L-carnitine in erectile dysfunction. The test is classed as in vivo, human. The following applies: not previously treated with sildenafil.
For test [2], the system named is diabetics patients suffering from E.D. Nature of the test: clinical trial of propionyl L-carnitine plus sildenafil in sildenafil non-responders (dynamic colour Doppler ultrasonography, IIEF). The test is classed as in vivo, human. The following applies: 2 g/day propionyl L-carnitine orally daily in combination with 50 mg sildenafil orally twice a week; diabetic E.D. patients not responder to sildenafil alone; after 3 and 6 months. As to the method:
In this trial, 24 diabetics patients suffering from E.D. which were not responder to the treatment with sildenafil alone were enrolled.
2 g/day (1 g tablet twice a day) of propionyl L-carnitine were orally administered daily to the patients, and 50 mg sildenafil orally, twice a week.
In this trial, 30 diabetics patients suffering from E.D. which were not responder to the treatment with sildenafil alone were enrolled.
2 g/day (1 g tablet twice a day) of propionyl L-carnitine, were orally administered daily to the patients, and 50 mg sildenafil orally, twice a week.

For `CCC(=O)O[C@H](CC(=O)[O-])C[N+](C)(C)C` [propionyl L-carnitine], the “usefulness for treating the erectile dysfunction” value in test [1] is reported as “useful for treating the erectile dysfunction”. In addition, in test [2], the “arterial flux by dynamic colour Doppler ultrasonography” value was “improvement of the arterial flux” and the “satisfactory clinical response evaluated with IIEF, share of treated patients” value is 60%.
